Test results published in patent US11833144B2, “Treating autoimmune disease” (Mayo Foundation for Medical Education and Research, priority 2020, dated 2023).

How the values were obtained:
[1] = system: murine B cells; test: Murine B cell proliferation (CellTrace Violet, cell number) and class switch to IgG1 in vitro; format: cell-based, mouse; conditions: for proliferation of mouse B cells (CTV dilution) / B cell proliferation, exogenous fatty acid alone / IgG1 class switch, exogenous fatty acid alone: LPS/IL-4 activated; for proliferation of mouse B cells (CTV dilution): SCD inhibitor alone; for rescue of proliferation and IgG1 class switch upon SSI-4 treatment: SSI-4 with exogenous fatty acid; for B cell proliferation, exogenous fatty acid alone / IgG1 class switch, exogenous fatty acid alone: fatty acid-BSA conjugate, no inhibitor
Experimental: Mouse B cells were isolated from pooled single cell suspensions of spleen and peripheral lymph nodes using CD19 Microbeads (Miltenyi) or Mouse B cell Isolation Kit (Stemcell Technologies). B cells were stimulated with LPS (10 μg/mL; Sigma-Aldrich) and recombinant IL-4 cytokine (10 ng/mL; Tonbo Bioscience) with or without SCD inhibitor SSI-4, and proliferation was measured by dilution of CellTrace Violet proliferation dye (Thermo Fisher Scientific). B cells were also stimulated with anti-IgM (10 μg/mL; Jackson ImmunoResearch), anti-CD40 (10 μg/mL; BioXcell) and IL-4 (10 ng/mL; Tonbo Bioscience), or TLR ligand CpG (2.5 μM; IDT), recombinant IL-4 and IL-5 (10 ng/mL; Tonbo Bioscience) cytokines. To test the function of monounsaturated and saturated fatty acids, B cells were activated in presence of exogenous fatty acid-BSA conjugate. Palmitoleic acid (NU-CHEK PREP, INC), palmitic acid (NU-CHEK PREP, INC), stearic acid (NU-CHEK PREP, INC) were conjugated with fatty acid free BSA (Sigma-Aldrich) as described elsewhere (Wang et al., Immunity 35:871-882 (2011)). Human B cells were activated with CpG OND2006 (2.5 μM; IDT), recombinant human cytokine IL-10 ([…]; Peprotech), IL-15 (10 ng/mL; Peprotech), IL-4 (10 ng/mL; Biolegend), IL-2 (10 unit/mL) and anti-human CD40 (1 μg/mL; BioXcell). Human B cell proliferation was measured by ^3[H]-thymidine incorporation (1 μCi/mL) (American Radiolabeled Chemicals). For analysis of surface markers, cells were stained in PBS containing 1% (w/v) bovine serum albumin on ice for 30 minutes, with anti-IgG1 (RMG1-1, Biolegend), anti-CD19 (ID3, Biolegend) anti-B220 (RA3-6B2, Biolegend), anti-CD4 (GK1.5, Biolegend), anti-CD8 (53-6.7, Biolegend), anti-CD25 (PC16, Biolegend), anti-GL7 (GL-7, Biolegend), anti-CD95 (Jo2, BD Biosciences), anti-CD138 (281-2, Biolegend), anti-IgD (11-26c.2a, Biolegend), anti-PD-1 (J43, ThermoFisher), anti-IgM (II/41, ThermoFisher). Antigen specific GC response was detected with tetramer NP-phycoerythrin conjugated with PE (Biosearch Technologies). CXCR5 was stained with biotinylated anti-CXCR5 (2G8) followed by staining with streptavidin-conjugated PE (both from BD Biosciences). Cell viability was assessed using the Fixable Dye Ghost 510 (Tonbo Bioscience) or Annexin V cell apoptosis kit with 7-AAD (ThermoFisher) following the manufacturer's protocol. Phosflow staining for phospho-S6 (S235/236) was performed using Phosflow Fix/Perm kit (BD Biosciences). Mitochondrial potential was measured by staining with 20 nM TMRM (ThermoFisher) following manufacturer's instructions. Flow cytometry was performed on the LSR II, LSR Fortessa (BD Biosciences) or Attune NxT (ThermoFisher) cytometers, and analysis was performed using FlowJo software (Tree Star).

[2] = system: activated human B cells; test: Seahorse OCR / ECAR in activated human B cells; format: cell-based; conditions: exogenous fatty acid, 72 hours
Experimental: (§1) The bioenergetic activities of the OCR and ECAR were measured using a Seahorse XFe96 Extracellular Flux Analyzed following established protocols (Agilent). Briefly, B cells were seeded at 200,000 cells/well on Cell-Tak (Corning) coated XFe96 plate with fresh XF media (Seahorse XF RPMI medium containing 10 mM glucose, 2 mM L-glutamine, and 1 mM sodium pyruvate, PH 7.4; all reagents from Agilent). OCR was measured in the presence of Oligomycin (1.5 μM; Sigma-Aldrich), FCCP (1.5 μM; Sigma-Aldrich), and Rotenone (1 μM; Sigma-Aldrich)/Antimycin A (1 μM; Sigma-Aldrich) in Mito Stress assay. For ECAR measurement, B cells were seeded in XFe96 plate with fresh Seahorse XF RPMI medium with 2 mM L-glutamine (PH 7.4), and treated with glucose (10 mM; Agilent), Oligomycin (1.5 and 2-DG (50 mM; Sigma-Aldrich) orderly in Glycolysis Stress assay.

[3] = system: activated murine B cells; test: Seahorse OCR / ECAR in activated murine B cells; format: cell-based, mouse; conditions: exogenous fatty acid, 48 h
Experimental: as §1

Structure (SMILES): Cn1cnc(N)c2ncnc1-2 [3-MA, 3-methyladenine, reference compound]
- rescue of B cell proliferation and class switch to IgG1 in the presence of SSI-4 ([1]; 3-MA 1 mM, wortmannin 1 μM): successfully rescued

Structure (SMILES): CNC(=O)c1cccc(NC(=O)N2CCC(Oc3ccccc3Cl)CC2)c1 [A939572, reference compound]
- proliferation of mouse B cells (CTV dilution) [1]: capable of inhibiting B cell proliferation

Structure (SMILES): Cc1nnc(-c2ccc(N3CCC(Oc4ccccc4C(F)(F)F)CC3)nn2)s1 [MF438, reference compound]
- proliferation of mouse B cells (CTV dilution) [1]: capable of inhibiting B cell proliferation

Structure (SMILES): CCCCCCCCCCCCCCCC(=O)O [PA, palmitic acid]
- rescue of proliferation and IgG1 class switch upon SSI-4 treatment ([1]; LPS/IL-4): no rescue effects
- B cell proliferation, exogenous fatty acid alone [1]: unable to promote
- IgG1 class switch, exogenous fatty acid alone [1]: unable to promote

Structure (SMILES): CCCCCC/C=C\CCCCCCCC(=O)O [PO, palmitoleic acid]
- respiration (OCR) in activated human B cells [2]: did enhance OCR
- OCR upon LPS/IL-4 stimulation in mouse B cells [3]: did enhance OCR
- B cell respiration (OCR) ([3]; CpG/IL-4/IL-5 (PO: CpG and anti-IgM/anti-CD40) stimulation): did not promote respiration
- rescue of proliferation and IgG1 class switch in SCD1/2 deficient B cells ([1]; B cells from Scd1 and Scd2 deficient mice, LPS/IL-4): partial rescue effect
- rescue of proliferation and IgG1 class switch upon SSI-4 treatment ([1]; LPS/IL-4): substantial, but incomplete, rescue effects
- IgG1 class switch, exogenous fatty acid alone [1]: did not improve class switch

Structure (SMILES): CCCCCCCCCCCCCCCCCC(=O)O [SA, stearic acid]
- rescue of proliferation and IgG1 class switch upon SSI-4 treatment ([1]; LPS/IL-4): no rescue effects
- B cell proliferation, exogenous fatty acid alone [1]: unable to promote
- IgG1 class switch, exogenous fatty acid alone [1]: unable to promote

Structure (SMILES): CCOC(=O)[C@@]1(CCCCCCOc2ccc(Cl)cc2)CO1 [etomoxir, reference compound]
- effect of OA treatment on class switch in presence of etomoxir ([1]; OA plus etomoxir 40 μM, 72 hours): negated the effects of OA treatment
- B cell class switch to IgG1 ([1]; etomoxir 40 μM, LPS/IL-4, 72 hours): reduced B cell class switch
